Patent US9242009B2, “Compositions and methods to treat neurodegenerative diseases” (The General Hospital Corporation, priority 2012, dated 2016)

Assays:
SH-SY5Y cells [1] = assay: Oxygen-glucose deprivation (OGD) of SH-SY5Y cells, viability by LDH release, MTT and CV assays; assay type: cell-based, Human
Procedure: (§1) OGD for SH-SY5Y was performed by placing cells in a hypoxia chamber ([…] Technologies Inc.) for 15 hours, followed by 24 hours of reoxygenation as previously reported (FIG. 3A) (Serra-Pérez et al. (2008) Journal of Neurochemistry 106, 1237-1247). Briefly, medium was replaced with glucose-free RPMI 1640 with L-glutamine (Cellgro by Mediatech, Inc), deoxygenated with anaerobic gas mixture (93% N2-5% CO2-2% H2) for 30 minutes before use. Cells were then placed in a hypoxia chamber, flushed with anaerobic gas mixture (93% N2-5% CO2-2% H2) and incubated at 37° C. After 15 hours of hypoxia, medium was replaced with DMEM/F12 and incubated for 24 hours at 37° C. in 95% air/5% CO2 in a humidified incubator.
(§2) A microtiter plate containing cells was centrifuged at 250×g for 10 minutes and the supernatant was used for LDH measurement with LDH Cytotoxicity Detection Kit (Roche). After aspirating the medium, remaining cells were washed with PBS, then, 100 μl of 1% Triton-X was added to each well, followed by incubation at 37° C. for 30 minutes. Medium and lysates were used for LDH measurement at wavelength 492 nm. Percentage of released LDH was calculated with following formula: {LDH (medium)/LDH (medium+cell)×100}. Average value of control (cells without OGD) was deducted as background.
Ten μl of thiazolyl blue tetrazolium bromide solution (5 mg/ml in PH 7.4 PBS) was added to each well containing 100 μl of medium and cells, followed by incubation at 37° C. for 4 hours in the dark. Isopropanol (100 μl, 0.04 N HCl) was added to dissolve blue dye. After dissolved completely, absorbance was measured with plate-reader (Synergy 2, BioTek Instrument) at test wavelength 570 nm and reference wavelength 670 nm. Cell viability was determined by absorbance at 570 nm and reported as ratio to control cells (without OGD).
After aspirating culture medium, cells were fixed and stained by 0.5% CV in 95% (v/v) ethanol for 5 minutes, then washed by tap water several times. After taking photographs, 1% sodium dodecylsulfate solution was added to each well to elute blue dye. Absorbance was measured with plate-reader at 595 nm of wavelength. Values were shown as ratio to control (cells without OGD).

[2] = system: phosphorylated tau protein at serine 202 and threonine 205; assay: LPS-induced tau phosphorylation in mice hippocampus (immunoblot); assay type: in vivo; settings: 90 μmol/kg pretreatment
Aβ1-42 = settings: LPS challenge for 7 days
[3] = system: murine primary cortical neurons; assay: Cytotoxicity of H2S donors to murine primary cortical neurons (LDH release); assay type: cell-based, mice; settings: 50 μM; 24 hours; without memantine
Procedure: as §2

[4] = Plasma and cerebral sulfide levels of mice after intraperitoneal administration; assay type: in vivo; settings: 25 μmol/kg intraperitoneal, 90 minutes after administration
Description: Blood was drawn from left ventricle and centrifuged to collect the plasma. After perfusion with Tris-HCl buffer via left ventricle, brain was harvested, homogenized in Tris-HCl, and centrifuged. Plasma and supernatant of brain homogenate were derivatized with MBB and analyzed by HPLC.

[5] = system: phosphorylated ERK1/2 at threonine 202 and tyrosine 204; assay: Immunoblot of phosphorylated ERK1/2 in SH-SY5Y after OGD; assay type: cell-based, Human; settings: 50 μM added 8 hours after end of OGD
Procedure: as §1, with “After 15 hours of hypoxia, medium was replaced with DMEM/F12 and incubated for 24 hours at 37° C. in 95% air/5% CO2 in a humidified incubator.” left out
Protein levels in SH-SY5Y were determined by standard immunoblot techniques using primary antibodies (1:1,000, Cell Signaling Technology Inc., Danvers, Mass.) against cleaved caspase-3, caspase-3, phosphorylated Akt at threonine 308, Akt, phosphorylated ERK1/2 at threonine 202 and tyrosine 204, Erk1/2, β-tubulin and phosphorylated tau protein at serine 202 and threonine 205 (1:250; Thermo scientific, MN1020), tau protein (1:1000; Thermo scientific, MN1010). Bound antibody was detected with a horseradish peroxidase-linked antibody directed against rabbit IgG (1:10,000˜1:25,000; Cell Signaling Technology Inc.), or mouse IgG (1:2,000; GE healthcare, NA931V) and was visualized using chemiluminescence with ECL Advance kit (GE healthcare).

SH-SY5Y cells [6] = assay: Intracellular sulfide levels in SH-SY5Y cells (HPLC); assay type: cell-based, Human; settings: 20 μM, SH-SY5Y
Procedure: Human neuroblastoma SH-SY5Y cells were cultured in Eagle's medium/Ham's F-12 50/50 Mix (DMEM/F12, Cellgro by Mediatech, Inc.) supplemented with 10% fetal bovine serum (FBS) and 1% penicillin/streptomycin. The cells were seeded into 96 well plates (2×10^4 cells per well) for OGD and measurements of toxicity, 6 cm dishes (5×10^5 cells per dish) for measurements of sulfide and reduced-glutathione (GSH), or 10 cm dishes (1×10^6 cells per dish) for measurements of intracellular calcium. Cell culture medium was replaced every 2 days, and the cultures were maintained at 37° C. in 95% air/5% CO2 in a humidified incubator. Cells were used after reaching 80% confluent.
Concentration of free sulfide in SH-SY5Y cells was measured using high performance liquid chromatography (HPLC) (Tokuda et al. (2012) Antioxidants & Redox Signaling). Briefly, SH-SY5Y cells were seeded into 6 cm dishes (5×10^5 cells per dish). After being 80% confluent, 20 μM H2S donor was added to the dish and incubated at 37° C. Cells were washed with ice-cold Tris-HCl (100 mM, PH 9.5, DTPA 0.1 mM) buffer, scraped, transferred to microfuge tubes, and centrifuged. MBB (10 mM in acetonitrile, 50 μl) was added to 100 μl of supernatant. After 30 minutes of incubation at room temperature in dark, 50 μl of 200 mM 5-sulfosalicylic acid (SSA) was added. After centrifugation, supernatant was analyzed by HPLC. For sulfide levels in medium, after centrifugation, supernatant was used for MBB reaction as above.
In contrast, incubation of SH-SY5Y cells with S-memantine increased intracellular sulfide level more markedly than incubation with ACS48 at all time points after addition (˜10 fold at 4 hours, P<0.001 by two-way ANOVA with Bonferroni post-test). In a separate experiment, we examined whether or not incubation with memantine itself or incubation with ACS48 and memantine would affect intracellular sulfide levels in SH-SY5Y cells.

SH-SY5Y = assay: Amyloid beta-induced toxicity in SH-SY5Y (LDH release, MTT); assay type: cell-based, Human; settings: 24 hours incubation with Aβ1-42 at 20 μM
Procedure: FIG. 12A-B is a set of two bar graphs showing cell viability of SH-SY5Y cells exposed to 20 μM amyloid beta (Aβ) and treated with memantine, ACS48, or S-memantine at 20 or 50 μM. Cell viability was estimated by LDH release assay in the left graph and MTT assay in the right graph.

[7] = time- and dose-range studies, SH-SY5Y

C[C@]12C[C@@H]3C[C@](C)(C1)C[C@@](NC(=O)c1ccc(-c4cssc4=S)cc1)(C3)C2 [S-memantine, N-((1r,3R,5S,7r)-3,5-dimethyladamantan-1-yl)-4-(3-thioxo-3H-1,2-dithiol-4-yl)-benzamide]
Cell viability after OGD (LDH release, MTT, CV assays) (SH-SY5Y cells [1]; 50 μM added 8 hours after the end of OGD, 15 hours OGD, 24 hours reoxygenation): improved the viability of SH-SY5Y cells more markedly than did addition of ACS48 or memantine
Cell viability after OGD (SH-SY5Y cells [1]; incubation starting at any time between pre-OGD and up to 8 hours after OGD): improved
Most effective dose to improve viability after OGD (SH-SY5Y cells [1]; [7]): 50 µM
Most effective time point of addition after the end of OGD (SH-SY5Y cells [1]; [7]): 8 h
LPS-induced tau phosphorylation at serine 202 and threonine 205 in mice hippocampus [2]: prevented LPS-induced tau phosphorylation
Aβ1-42 accumulation in mice cortex, or hippocampus (Aβ1-42; 90 μmol/kg pretreatment): prevented Aβ1-42 accumulation
Prevention of Aβ1-42 accumulation compared with memantine (Aβ1-42): prevented Aβ1-42 accumulation more markedly than did memantine
LDH release (cytotoxicity) [3]: did not induce LDH release
Cerebral sulfide levels [4]: increased
Plasma sulfide levels [4]: increased plasma sulfide levels
Dephosphorylation of ERK after OGD [5]: attenuated dephosphorylation of ERK
Intracellular sulfide levels (SH-SY5Y cells [6]; 37° C.): increased intracellular sulfide levels
Intracellular sulfide level relative to incubation with ACS48 (SH-SY5Y cells [6]; at 4 hours): ~10 fold
Cell viabilities after Aβ1-42 compared with memantine (SH-SY5Y): improved cell viabilities more markedly than did memantine
Cell viabilities after Aβ1-42 (SH-SY5Y; compound 20 or 50 μM): improved cell viabilities
